Laboratory results from patent US20240300991A1, “NUCLEOSIDE DERIVATIVE HAVING MULTI-TARGET KINASE INHIBITORY ACTIVITY AND PHARMACEUTICAL COMPOSITION FOR PREVENTING AND TREATING CANCER COMPRISING SAME” (FUTURE MEDICINE CO., LTD., priority 2021, published 2024).
Each block holds one compound with its values, some of them ahead of it.

Assays:
[1] = tested on: MDA-MB-231 (breast cancer cells); test: Inhibitory activity against cancer cells (sulforhodamine B staining); type: cell-based; conditions: 3 days, SRB staining
Protocol: (§1) In order to examine the anticancer activity of the nucleoside derivatives of the present invention synthesized in the Preparation Examples, the ICso of each of A549 (lung cancer cells), HCT116 (colon cancer cells), MDA-MB-231 (breast cancer cells), SK-Hep-1 (liver cancer cells), SNU638 (stomach cancer cells) and PC-3 (prostate cancer cells) against cancer cells was measured.
(§2) The test method is as follows. Cells were allowed to stand for 1 day and set as a control on day 0. Further, after a test material was added to the cells, the cells were allowed to stand for 3 days. Thereafter, the cells were stained with 1% acetic acid and 0.4% sulforhodamine B. The stained cells were dried and dissolved in 10 mM Tris (pH 10.0). Absorbance was measured at 515 nm, and the degree of cell division was determined using the following equation. After calculation as Cell division (%)=(average absorbancetest material−average absorbanceday 0)/(average absorbance control-average absorbanceday 0)×100, the degree of cell division was calculated through a non-linear regression analysis using Table Curve 2D v5.01 (Systat Software Inc., San Jose, CA, USA).

[2] = tested on: HCT116 (colon cancer cells); test: as above; type: cell-based; conditions: 3 days, SRB staining
Protocol: as §1, §2

[3] = tested on: SK-Hep-1 (liver cancer cells); test: as above; type: cell-based; conditions: 3 days, SRB staining
Protocol: as §1, §2

[4] = tested on: PC-3 (prostate cancer cells); test: as above; type: cell-based; conditions: 3 days, SRB staining
Protocol: as §1, §2

A549 (lung cancer cells) = test: as above; type: cell-based; conditions: 3 days, SRB staining
Protocol: as §1, §2

[5] = tested on: SNU638 (stomach cancer cells); test: as above; type: cell-based; conditions: 3 days, SRB staining
Protocol: as §1, §2

NTRK1 = molecular target: T1, NTRK1 (Homo sapiens, UniProt P04629); test: Kinase inhibition test (DNA-tagged kinase, affinity resin, qPCR readout); type: binding; design: key: (−) indicates no effect; (+) indicates weak inhibitory activity; (++) indicates a moderate level of inhibitory activity; (+++) indicates strong inhibitory activity; conditions: 1 μM of compound
T1 construct: made in house
Text: (§3) In order to examine the inhibitory activity of the nucleoside derivatives of the present invention synthesized in the Preparation Examples against kinases, the nucleoside derivatives were confirmed to have inhibitory activity against neurotrophic tyrosine kinase receptor type 1 or tropomyosin receptor kinase A (NTRK1), casein kinase 1 isoform delta (CSNK1D), dual specificity tyrosine-phosphorylation-regulated kinase 1A (DYRK1A), dual specificity tyrosine-phosphorylation-regulated kinase 1B (DYRK1B) and receptor-type tyrosine-protein kinase or fms like tyrosine kinase 3 or cluster of differentiation antigen 135 (CD135) or fetal liver kinase-2 (Flk2) (FLT3).
(§4) The inhibition measurement method is as follows. Most of the kinases were produced by culturing a phage in which BL21 E. coli was tagged with a kinase at 32° C. until lysis, followed by centrifugation and filtration. Further, the kinases were produced using HEK-293 cells. Thereafter, the kinases were DNA tagged for qPCR. After an affinity resin was prepared by stirring a biotin-tagged substrate onto streptavidin-coated beads for 30 minutes, a non-specifically bound substrate was washed with a buffer (SeaBlock (Pierce), 1% BSA, 0.05% Tween 20, 1 mM DTT).
(§5) For a kinase test, the kinase, the substrate, the affinity resin, and a test material dissolved in dimethyl sulfoxide were stirred together in a buffer (20% SeaBlock, 0.17×PBS, 0.05% Tween20, and 6 mM DTT) at room temperature for 1 hour. Thereafter, an affinity substrate was washed with a buffer (1×PBS, 0.05% Tween20), and then suspended in an elution buffer (1×PBS, 0.05% Tween20, 0.5 μM non-biotinylated affinity ligand), and the resulting suspension was stirred. The concentration of the kinase was quantified by qPCR.

DYRK1A = molecular target: T2, DYRK1A (Homo sapiens, UniProt Q13627); test: as above; type: binding; design: key: (−) indicates no effect; (+) indicates weak inhibitory activity; (++) indicates a moderate level of inhibitory activity; (+++) indicates strong inhibitory activity; conditions: 1 μM of compound
T2 construct: made in house
Text: as §3, §4, §5

DYRK1B = molecular target: T3, DYRK1B (Homo sapiens, UniProt Q9Y463); test: as above; type: binding; design: key: (−) indicates no effect; (+) indicates weak inhibitory activity; (++) indicates a moderate level of inhibitory activity; (+++) indicates strong inhibitory activity; conditions: 1 μM of compound
T3 construct: made in house
Text: as §3, §4, §5

CSNK1D = molecular target: T4, CSNK1D (Homo sapiens, UniProt P48730); test: as above; type: binding; design: key: (−) indicates no effect; (+) indicates weak inhibitory activity; (++) indicates a moderate level of inhibitory activity; (+++) indicates strong inhibitory activity; conditions: 1 μM of compound
T4 construct: made in house
Text: as §3, §4, §5

T4 sequence (P48730 whole entry): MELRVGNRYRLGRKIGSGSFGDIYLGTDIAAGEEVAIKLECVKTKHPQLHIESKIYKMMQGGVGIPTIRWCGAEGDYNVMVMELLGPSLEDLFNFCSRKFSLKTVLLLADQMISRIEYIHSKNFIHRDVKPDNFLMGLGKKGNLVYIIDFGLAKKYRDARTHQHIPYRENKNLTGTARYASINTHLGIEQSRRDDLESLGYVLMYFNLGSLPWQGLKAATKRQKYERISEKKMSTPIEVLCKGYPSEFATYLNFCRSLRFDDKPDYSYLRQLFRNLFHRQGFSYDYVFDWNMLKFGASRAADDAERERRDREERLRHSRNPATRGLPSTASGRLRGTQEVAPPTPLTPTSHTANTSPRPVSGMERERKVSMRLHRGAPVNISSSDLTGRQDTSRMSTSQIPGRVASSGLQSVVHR
T1 sequence (P04629 33-796): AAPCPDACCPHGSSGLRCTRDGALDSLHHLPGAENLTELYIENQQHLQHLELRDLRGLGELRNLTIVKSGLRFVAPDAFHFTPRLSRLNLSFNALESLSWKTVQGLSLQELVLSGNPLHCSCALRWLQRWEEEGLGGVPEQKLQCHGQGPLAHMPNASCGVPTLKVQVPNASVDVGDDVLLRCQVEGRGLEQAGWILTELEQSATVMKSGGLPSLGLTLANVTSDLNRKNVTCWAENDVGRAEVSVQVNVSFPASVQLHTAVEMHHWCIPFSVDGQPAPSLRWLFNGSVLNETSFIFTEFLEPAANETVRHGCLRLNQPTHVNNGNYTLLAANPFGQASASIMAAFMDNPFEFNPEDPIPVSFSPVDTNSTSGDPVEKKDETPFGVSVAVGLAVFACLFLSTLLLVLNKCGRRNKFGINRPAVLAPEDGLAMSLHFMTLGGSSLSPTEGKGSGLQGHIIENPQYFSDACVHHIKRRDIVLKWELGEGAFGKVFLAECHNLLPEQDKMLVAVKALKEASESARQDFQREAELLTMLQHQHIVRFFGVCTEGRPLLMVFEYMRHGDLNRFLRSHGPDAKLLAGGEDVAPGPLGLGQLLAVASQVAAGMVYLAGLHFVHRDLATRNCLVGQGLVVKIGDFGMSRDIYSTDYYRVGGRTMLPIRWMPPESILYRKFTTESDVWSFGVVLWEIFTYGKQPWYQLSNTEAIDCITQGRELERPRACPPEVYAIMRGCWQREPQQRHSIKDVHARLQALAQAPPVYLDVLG
T3 sequence (Q9Y463 whole entry): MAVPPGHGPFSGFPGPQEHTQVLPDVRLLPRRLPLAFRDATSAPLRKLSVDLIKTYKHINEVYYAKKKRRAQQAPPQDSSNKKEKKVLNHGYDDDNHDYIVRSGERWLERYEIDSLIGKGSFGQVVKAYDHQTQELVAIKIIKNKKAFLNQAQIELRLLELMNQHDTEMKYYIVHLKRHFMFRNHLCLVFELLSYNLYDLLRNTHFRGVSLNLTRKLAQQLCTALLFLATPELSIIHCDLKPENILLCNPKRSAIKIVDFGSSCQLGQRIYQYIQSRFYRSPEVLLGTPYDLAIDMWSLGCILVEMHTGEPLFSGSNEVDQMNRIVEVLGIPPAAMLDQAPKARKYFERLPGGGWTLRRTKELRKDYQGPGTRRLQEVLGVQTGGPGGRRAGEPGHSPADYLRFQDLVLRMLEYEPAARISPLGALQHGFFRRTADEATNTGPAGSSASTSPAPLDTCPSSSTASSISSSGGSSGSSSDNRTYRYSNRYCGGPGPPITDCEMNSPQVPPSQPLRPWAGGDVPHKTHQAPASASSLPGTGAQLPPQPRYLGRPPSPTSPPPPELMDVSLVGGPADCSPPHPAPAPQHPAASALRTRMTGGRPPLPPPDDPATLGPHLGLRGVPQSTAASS

Structure (SMILES): C#Cc1cn([C@@H]2S[C@H](COC(=O)c3ccc(OC)cc3)[C@@H](O)[C@H]2O)c2ncnc(N)c12 [Compound 7d]
IC50 [1]: 360 nM
IC50 [2]: 0.3 µM
IC50 [3]: 250 nM
IC50 [4]: 330 nM
IC50 (A549 (lung cancer cells)): 350 nM
IC50 [5]: 0.19 µM
NTRK1 inhibitory activity (NTRK1): ++
DYRK1A inhibitory activity (DYRK1A): ++
DYRK1B inhibitory activity (DYRK1B): ++
CSNK1D inhibitory activity (CSNK1D): ++

Structure (SMILES): C#Cc1cn([C@@H]2S[C@H](COC(=O)c3c(C)cccc3C)[C@@H](O)[C@H]2O)c2ncnc(N)c12 [Compound 7e]
IC50 [1]: 4680 nM
IC50 [2]: 6.42 µM
IC50 [3]: 4390 nM
IC50 [4]: 5590 nM
IC50 (A549 (lung cancer cells)): 6470 nM
IC50 [5]: 4.84 µM
NTRK1 inhibitory activity (NTRK1): +++
DYRK1A inhibitory activity (DYRK1A): ++
DYRK1B inhibitory activity (DYRK1B): ++
CSNK1D inhibitory activity (CSNK1D): ++

Structure (SMILES): N#Cc1cn([C@@H]2S[C@H](CO)[C@@H](O)[C@H]2O)c2ncnc(N)c12 [Compound 5, 4-amino-7-((2R,3R,4S,5R)-3,4-dihydroxy-5-(hydroxymethyl)tetrahydrothiophen-2-yl)-7H-pyrrolo[2,3-d]pyrimidine-5-carbonitrile]
IC50 ([1]; Homo sapiens, 72 h): 2240 nM
IC50 ([2]; Homo sapiens, HCT-116, 72 h): 1.59 µM
IC50 ([3]; Homo sapiens, SK-HEP1, 72 h): 1790 nM
IC50 ([4]; 72 h): 2180 nM
IC50 (A549 (lung cancer cells); Homo sapiens, 72 h): 2580 nM
IC50 ([5]; Homo sapiens, SNU-638, 72 h): 1.22 µM
NTRK1 inhibitory activity (NTRK1): ++
DYRK1A inhibitory activity (DYRK1A): +++
DYRK1B inhibitory activity (DYRK1B): ++
CSNK1D inhibitory activity (CSNK1D): ++

Structure (SMILES): C#Cc1cn([C@@H]2S[C@H](CNC(=O)c3ccc(OC)cc3)[C@@H](O)[C@H]2O)c2ncnc(N)c12 [Compound 8c]
IC50 [1]: 10400 nM
IC50 [2]: 13.7 µM
IC50 [3]: 12200 nM
IC50 [4]: 14800 nM
IC50 (A549 (lung cancer cells)): 10100 nM
IC50 [5]: 12.2 µM
NTRK1 inhibitory activity (NTRK1): +++
DYRK1A inhibitory activity (DYRK1A): +++
DYRK1B inhibitory activity (DYRK1B): ++
CSNK1D inhibitory activity (CSNK1D): ++

Structure (SMILES): C#Cc1cn([C@@H]2S[C@H](COC(=O)c3ccccc3)[C@@H](O)[C@H]2O)c2ncnc(N)c12 [Compound 7b]
IC50 [1]: 2130 nM
IC50 [2]: 2.86 µM
IC50 [3]: 570 nM
IC50 [4]: 2050 nM
IC50 (A549 (lung cancer cells)): 3190 nM
IC50 [5]: 1.31 µM
NTRK1 inhibitory activity (NTRK1): +++
DYRK1A inhibitory activity (DYRK1A): ++
DYRK1B inhibitory activity (DYRK1B): ++
CSNK1D inhibitory activity (CSNK1D): ++

Structure (SMILES): C#Cc1cn([C@@H]2S[C@H](CO)[C@@H](O)[C@H]2O)c2ncnc(N)c12 [Compound 3, (2R,3R,4S,5R)-2-(4-amino-5-ethynyl-7H-pyrrolo[2,3-d]pyrimidin-7-yl)-5-(hydroxymethyl)tetrahydrothiophene-3,4-diol]
IC50 ([1]; Homo sapiens, 72 h): 50 nM
IC50 ([2]; Homo sapiens, HCT-116, 72 h): 0.03 µM
IC50 ([3]; Homo sapiens, SK-HEP1, 72 h): 50 nM
IC50 ([4]; 72 h): 4 nM
IC50 (A549 (lung cancer cells); Homo sapiens, 72 h): 60 nM
IC50 ([5]; Homo sapiens, SNU-638, 72 h): 0.03 µM
NTRK1 inhibitory activity (NTRK1): ++
DYRK1A inhibitory activity (DYRK1A): +++
DYRK1B inhibitory activity (DYRK1B): +++
CSNK1D inhibitory activity (CSNK1D): ++

Structure (SMILES): N#Cc1cn([C@@H]2S[C@H](CNC(=O)c3ccccc3)[C@@H](O)[C@H]2O)c2ncnc(N)c12 [Compound 8d]
IC50 [1]: 9340 nM
IC50 [2]: 8.9 µM
IC50 [3]: 13800 nM
IC50 [4]: 6670 nM
IC50 (A549 (lung cancer cells)): 11200 nM
IC50 [5]: 23.7 µM
NTRK1 inhibitory activity (NTRK1): +++
DYRK1A inhibitory activity (DYRK1A): ++
DYRK1B inhibitory activity (DYRK1B): +++
CSNK1D inhibitory activity (CSNK1D): ++

Structure (SMILES): NC(=O)c1cn([C@@H]2S[C@H](CNC(=O)c3ccccc3)[C@@H](O)[C@H]2O)c2ncnc(N)c12 [Compound 8e]
IC50 [1]: 6780 nM
IC50 [2]: 12.5 µM
IC50 [3]: 10000 nM
IC50 [4]: 4650 nM
IC50 (A549 (lung cancer cells)): 45200 nM
IC50 [5]: 9.34 µM
NTRK1 inhibitory activity (NTRK1): ++
DYRK1A inhibitory activity (DYRK1A): ++
DYRK1B inhibitory activity (DYRK1B): ++
CSNK1D inhibitory activity (CSNK1D): ++

Now from value to compound:

IC50 ([1]; Homo sapiens, 72 h): 520 nM
IC50 ([2]; Homo sapiens, HCT-116, 72 h): 7.28 µM
IC50 ([3]; Homo sapiens, SK-HEP1, 72 h): 1370 nM
IC50 ([4]; 72 h): 2450 nM
IC50 (A549 (lung cancer cells); Homo sapiens, 72 h): 350 nM
IC50 ([5]; Homo sapiens, SNU-638, 72 h): 5.46 µM
NTRK1 inhibitory activity (NTRK1): ++
DYRK1A inhibitory activity (DYRK1A): +++
DYRK1B inhibitory activity (DYRK1B): +++
CSNK1D inhibitory activity (CSNK1D): ++
Structure (SMILES): C#Cc1cn([C@@H]2S[C@H](CO)[C@@H](O)[C@H]2O)c2nc(Cl)nc(N)c12 [Compound 14, (2R,3R,4S,5R)-2-(4-amino-2-chloro-5-ethynyl-7H-pyrrolo[2,3-d]pyrimidin-7-yl)-5-(hydroxymethyl)tetrahydrothiophene-3,4-diol]

IC50 [1]: 1080 nM
IC50 [2]: 1.83 µM
IC50 [3]: 2870 nM
IC50 [4]: 3560 nM
IC50 (A549 (lung cancer cells)): 2450 nM
IC50 [5]: 6.73 µM
NTRK1 inhibitory activity (NTRK1): ++
DYRK1A inhibitory activity (DYRK1A): ++
DYRK1B inhibitory activity (DYRK1B): ++
CSNK1D inhibitory activity (CSNK1D): ++
Structure (SMILES): N#Cc1cn([C@@H]2S[C@H](CNC(N)=O)[C@@H](O)[C@H]2O)c2ncnc(N)c12 [Compound 11aii]

IC50 [1]: 260 nM
IC50 [2]: 0.86 µM
IC50 [3]: 780 nM
IC50 [4]: 360 nM
IC50 (A549 (lung cancer cells)): 240 nM
IC50 [5]: 0.35 µM
NTRK1 inhibitory activity (NTRK1): +++
DYRK1A inhibitory activity (DYRK1A): +++
DYRK1B inhibitory activity (DYRK1B): +++
CSNK1D inhibitory activity (CSNK1D): +++
Structure (SMILES): [N-]=[N+]=NC[C@H]1S[C@@H](n2cc(C(N)=O)c3c(N)ncnc32)[C@H](O)[C@@H]1O [Compound 9c]

IC50 [1]: 5670 nM
IC50 [2]: 9.73 µM
IC50 [3]: 2130 nM
IC50 [4]: 2240 nM
IC50 (A549 (lung cancer cells)): 5270 nM
IC50 [5]: 8.46 µM
NTRK1 inhibitory activity (NTRK1): +++
DYRK1A inhibitory activity (DYRK1A): ++
DYRK1B inhibitory activity (DYRK1B): +++
CSNK1D inhibitory activity (CSNK1D): +++
Structure (SMILES): NC(=O)c1cn([C@@H]2SC[C@@H](O)[C@H]2O)c2ncnc(N)c12 [Compound 13g]
